Values after ≈ are worked out from the molar mass of the structure shown. Like-named read-outs stand apart in the source and are kept apart here.
How the values were obtained:
[1] = tested on: Plasmodium falciparum, chloroquine-sensitive strain NF54; test: activity against P. falciparum in vitro, strain NF54; assay type: cell-based; details: Plasmodium falciparum, read-out: IC50 (50% growth inhibition)
Method in brief: (§1)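 IC50 values come from logit regression of radiolabelled hypoxanthine incorporation after 48 h-72 h drug exposure of asynchronous P. falciparum in human A+ red cells (0.7% parasitemia).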

[2] = tested on: Plasmodium falciparum, chloroquine-sensitive strain FCH5C2; test: activity against P. falciparum in vitro, strain FCH5C2; assay type: cell-based; details: read-out: IC50 (50% growth inhibition)
Method in brief: as §1

[3] = tested on: Plasmodium falciparum, chloroquine-sensitive strain HB3; test: activity against P. falciparum in vitro, strain HB3; assay type: cell-based; details: read-out: IC50 (50% growth inhibition)
Method in brief: as §1

[4] = tested on: Plasmodium falciparum, chloroquine-sensitive strain RFMEF3; test: activity against P. falciparum in vitro, strain RFMEF3; assay type: cell-based; details: read-out: IC50 (50% growth inhibition)
Method in brief: as §1

[5] = tested on: Plasmodium falciparum, chloroquine-sensitive strain Ro7 3; test: activity against P. falciparum in vitro, strain Ro7 3; assay type: cell-based; details: read-out: IC50 (50% growth inhibition)
Method in brief: as §1

[6] = tested on: Plasmodium falciparum, chloroquine-resistant strain RFCR3; test: activity against P. falciparum in vitro, strain RFCR3; assay type: cell-based; details: read-out: IC50 (50% growth inhibition)
Method in brief: as §1

[7] = tested on: Plasmodium falciparum, chloroquine-resistant strain ItG2 F6; test: activity against P. falciparum in vitro, strain ItG2 F6; assay type: cell-based; details: read-out: IC50 (50% growth inhibition)
Method in brief: as §1

[8] = tested on: Plasmodium falciparum, chloroquine-resistant strain Indo; test: activity against P. falciparum in vitro, strain Indo; assay type: cell-based; details: read-out: IC50 (50% growth inhibition)
Method in brief: as §1

[9] = tested on: Plasmodium falciparum, chloroquine-resistant strain K1; test: activity against P. falciparum in vitro, strain K1; assay type: cell-based; details: Plasmodium falciparum, read-out: IC50 (50% growth inhibition)
Method in brief: as §1

[10] = tested on: Plasmodium falciparum, chloroquine-resistant strain W2; test: activity against P. falciparum in vitro, strain W2; assay type: cell-based; details: read-out: IC50 (50% growth inhibition)
Method in brief: as §1

[11] = tested on: Plasmodium falciparum, chloroquine-resistant strain 7G8; test: activity against P. falciparum in vitro, strain 7G8; assay type: cell-based; details: read-out: IC50 (50% growth inhibition)
Method in brief: as §1

[12] = tested on: Plasmodium falciparum, chloroquine-resistant strain W2 Mef; test: activity against P. falciparum in vitro, strain W2 Mef; assay type: cell-based; details: 48 h-72 h, read-out: IC50 (50% growth inhibition)
Method in brief: as §1

[13] = tested on: Plasmodium berghei (strain ANKA); test: activity against Plasmodium berghei in vivo (infected mice); details: for ED50: read-out: ED50 (po)
Experimental: Test method for the determination of the activity against Plasmodium berghei in vivo
The preparations according to the present invention were tested on mice infected with malaria pathogens (Plasmodium berghei). Male albino mice (IBM:MORO(SPF), FUELLINSDORF) weighing about 25 g were used as the test animals. They were kept in climatized rooms at 21°-22° C. in groups of 5 animals per cage. They received ad libitum a diet feed with a low PABA content ("NAFAG FUTTER" No. 9009 PAB-45, PABA content 45 mg/kg) and drinking water. On the first day of the test (D0) the test animals were infected with Plasmodium berghei (strain ANKA). For this there was used heparinized blood of a donor mouse with about 30% parasitemia, which was diluted with physiological saline such that it contains 10^8 parasitized erythrocytes per ml. 0.2 ml of this suspension was injected intravenously (i.v.) into the mice to be treated and into the control mice. In untreated control animals the parasitemia normally reaches 30-40% on the third day after the infection (D+3) and the test animals die between days +5 and +7.
The substances to be tested were dissolved or suspended in distilled water or in a mixture of 7% Tween 80, 3% alcohol (96%) and water. Usually, 0.25 ml of this solution or suspension was administered once subcutaneously and perorally to groups of 5 test animals. Treatment was effected 24 hours after the infection. 10 control animals were treated in the same manner with solvent or suspension medium per test.
All substances were tested in a first test in a single dosage of 10 mg/kg. Only those substances which in this test (10 mg/kg) had shown a parasitaemia reduction of 90% were used for the titration.
48 hours after the treatment (D+3), blood smears were prepared from all animals using blood from tail veins and were stained with Giemsa. The average erythrocyte infection rate (parasitemia in %) in the control groups as well as in the groups which had been treated with the test compounds was determined by counting under a microscope. The difference in the average values of the infection rates of control group (100%) and treated groups was calculated and expressed as a percentage reduction (GI %). The ED50 or ED90 was determined mathematically by means of the JMP programme (nonlinear fit). The ED50 (ED90) in mg/kg is that dose which after single administration reduces the average erythrocyte infection rate by 50% (90%) in comparison to the control group.
Table 2 below contains data with respect to the activity measured against Plasmodium berghei in mice: GI % is the percentage reduction in the parasitemia after a single dose of 10 mg/kg of the test substance administered perorally (po) or subcutaneously (sc); ED50 and ED90 are the effective doses of the test substance administered perorally or subcutaneously.

[14] = chloroquine-sensitive strain NF54, 48 h-72 h
[15] = chloroquine-sensitive strain FCH5C2, 48 h-72 h
[16] = chloroquine-sensitive strain HB3, 48 h-72 h
[17] = chloroquine-sensitive strain RFMEF3, 48 h-72 h
[18] = chloroquine-sensitive strain Ro7 3, 48 h-72 h
[19] = chloroquine-resistant strain RFCR3, 48 h-72 h
[20] = chloroquine-resistant strain ItG2 F6, 48 h-72 h
[21] = chloroquine-resistant strain Indo, 48 h-72 h
[22] = chloroquine-resistant strain K1, 48 h-72 h
[23] = chloroquine-resistant strain W2, 48 h-72 h
[24] = chloroquine-resistant strain 7G8, 48 h-72 h
[25] = mice, single administration po, dose reducing average erythrocyte infection rate by 50%
[26] = mice, single dose 10 mg/kg po, 48 hours after treatment (D+3), read-out: GI % at 10 mg/kg (po): percentage reduction in the parasitemia
[27] = mice, single dose 10 mg/kg sc, 48 hours after treatment (D+3), read-out: GI % at 10 mg/kg (sc): percentage reduction in the parasitemia

SMILES | IC50 [1, 14] [ng/mL] | IC50 [2, 15] [ng/mL] | IC50 [3, 16] [ng/mL] | IC50 [4, 17] [ng/mL] | IC50 [5, 18] [ng/mL] | IC50 [6, 19] [ng/mL] | IC50 [7, 20] [ng/mL] | IC50 [8, 21] [ng/mL] | IC50 [9, 22] [ng/mL] | IC50 [10, 23] [ng/mL] | IC50 [11, 24] [ng/mL] | IC50 [12] [ng/mL] | ED50 [13, 25] [mg/kg] | inhibition in vivo at 10 mg/kg [13, 26] [%] | inhibition in vivo at 10 mg/kg [13, 27] [%] | also measured
Clc1ccc2c(N[C@@H]3CCC[C@H]3N3CCCC3)ccnc2c1 (relative stereo) [Example 11a, (1RS,2RS)-N1-(7-Chloro-quinolin-4-yl)-(2-pyrrolidin-1-yl-cyclopentyl)-amine] | 7 (≈ 0.0222 µM) | 7 (≈ 0.0222 µM) | 6 (≈ 0.019 µM) | 7 (≈ 0.0222 µM) | 4 (≈ 0.0127 µM) | 18 (≈ 0.057 µM) | 8 (≈ 0.0253 µM) | 15 (≈ 0.0475 µM) | 15 (≈ 0.0475 µM) | 17 (≈ 0.0538 µM) | 14 (≈ 0.0443 µM) | 15 (≈ 0.0475 µM) | 4.5 | 99 | 99.6 | 
CN1CCCC(Nc2ccnc3cc(Cl)ccc23)C1 (racemic) [Example 19a, (RS)-(7-Chloro-quinolin-4-yl)-(1-methyl-piperidin-3-yl)-amine] | 6 (≈ 0.0218 µM) | 7 (≈ 0.0254 µM) | 6 (≈ 0.0218 µM) | 7 (≈ 0.0254 µM) | 5 (≈ 0.0181 µM) | 11 (≈ 0.0399 µM) | 5 (≈ 0.0181 µM) | 8 (≈ 0.029 µM) | 9 (≈ 0.0326 µM) | 10 (≈ 0.0363 µM) | 8 (≈ 0.029 µM) | 6 (≈ 0.0218 µM) | 2.4 | 99.9 | 99.9 | 
Clc1ccc2c(NCCCN3CCCCC3)ccnc2c1 [Example 18, (7-Chloro-quinolin-4-yl)-(3-piperidin-1-yl-propyl)-amine] | 4 (≈ 0.0132 µM) | 4 (≈ 0.0132 µM) | 8 (≈ 0.0263 µM) | 8 (≈ 0.0263 µM) | 7 (≈ 0.023 µM) | 8 (≈ 0.0263 µM) | 7 (≈ 0.023 µM) | 7 (≈ 0.023 µM) | 14 (≈ 0.0461 µM) | 11 (≈ 0.0362 µM) | 12 (≈ 0.0395 µM) | 12 (≈ 0.0395 µM) | 6.9 | 83 | 96 | 
CCN(CC)[C@@H]1CCC[C@H]1Nc1ccnc2cc(Cl)ccc12 (racemic) [Example 11, (1RS,2RS)-N1-(7-Chloro-quinolin-4-yl)-N2,N2-diethyl-cyclopentane-1,2-diamine] | 5 (≈ 0.0157 µM) | 7 (≈ 0.022 µM) | 6 (≈ 0.0189 µM) | 6 (≈ 0.0189 µM) | 5 (≈ 0.0157 µM) | 13 (≈ 0.0409 µM) | 6 (≈ 0.0189 µM) | 10 (≈ 0.0315 µM) | 18 (≈ 0.0566 µM) | 15 (≈ 0.0472 µM) | 9 (≈ 0.0283 µM) | 9 (≈ 0.0283 µM) | 2.2 | 99.9 | 99.9 | 
CCN(CC)[C@@H]1CCCC[C@H]1Nc1ccnc2cc(Cl)ccc12 (racemic) [Example 9, (1RS,2RS)-N1-(7-Chloro-quinolin-4-yl)-N2,N2-diethyl-cyclohexane-1,2-diamine] | 11 (≈ 0.0331 µM) | 15 (≈ 0.0452 µM) | 14 (≈ 0.0422 µM) | 12 (≈ 0.0362 µM) | 11 (≈ 0.0331 µM) | 17 (≈ 0.0512 µM) | 17 (≈ 0.0512 µM) | 18 (≈ 0.0542 µM) | 32 (≈ 0.0964 µM) | 31 (≈ 0.0934 µM) | 30 (≈ 0.0904 µM) | 25 (≈ 0.0753 µM) | 4.4 | 99 | 99.6 | 
CCN(CC)CCCC(C)Nc1ccnc2cc(Cl)ccc12 (stereo not drawn) [Chloroquine diphosphate, reference compound] |  |  |  |  |  |  |  |  |  |  |  | 79 |  |  |  | IC50 ([1]; NF54, 48 h): 8 ng/mL; IC50 ([2]; 48 h): 12 ng/mL; IC50 ([3]; HB3, 48 h): 11 ng/mL; IC50 ([4]; 48 h): 14 ng/mL; IC50 ([5]; 48 h): 8 ng/mL; IC50 ([6]; 48 h): 130 ng/mL; IC50 ([7]; 48 h): 68 ng/mL; IC50 ([8]; 48 h): 52 ng/mL; IC50 ([9]; K1, 48 h): 11 ng/mL; IC50 ([10]; W2, 48 h): 123 ng/mL; IC50 ([11]; 7G8, 48 h): 81 ng/mL; ED50 ([13]; Erythrocyte, po): 2.4 mg/kg; inhibition in vivo at 10 mg/kg ([13]; po, 48 h, read-out: GI % at 10 mg/kg (po): percentage reduction in the parasitemia): 99.9%; inhibition in vivo at 10 mg/kg ([13]; sc, 48 h, read-out: GI % at 10 mg/kg (sc): percentage reduction in the parasitemia): 99.9%
CN1CCCC1CNc1ccnc2cc(Cl)ccc12 (stereo not drawn) [Example 12a, (7-Chloro-quinolin-4-yl)-(1-methyl-pyrrolidin-2-yl-methyl)-amine] | 7 (≈ 0.0254 µM) | 8 (≈ 0.029 µM) | 10 (≈ 0.0363 µM) | 8 (≈ 0.029 µM) | 7 (≈ 0.0254 µM) | 11 (≈ 0.0399 µM) | 5 (≈ 0.0181 µM) | 11 (≈ 0.0399 µM) | 9 (≈ 0.0326 µM) | 9 (≈ 0.0326 µM) | 8 (≈ 0.029 µM) | 6 (≈ 0.0218 µM) | 4.8 | 91 | 91 | 

Reference: US5596002A, “Method of treating chloroquine-resistant malaria with aminoquinoline derivatives” (Hoffmann-La Roche Inc., priority 1993, dated 1997)
